This note sets out measurements from patent US20250361230A1, “LATS Inhibitors and Uses Thereof” (The USA, as Represented by the Secretary, Dept. of Heath …, priority 2022, published 2025).

The experiment has as its target T1, LATS1 Kinase-NanoLuc fusion in HEK-293 cells (Homo sapiens, UniProt O95835).
T1 construct: host or cells: HEK-293
T1 sequence (O95835 1-1130): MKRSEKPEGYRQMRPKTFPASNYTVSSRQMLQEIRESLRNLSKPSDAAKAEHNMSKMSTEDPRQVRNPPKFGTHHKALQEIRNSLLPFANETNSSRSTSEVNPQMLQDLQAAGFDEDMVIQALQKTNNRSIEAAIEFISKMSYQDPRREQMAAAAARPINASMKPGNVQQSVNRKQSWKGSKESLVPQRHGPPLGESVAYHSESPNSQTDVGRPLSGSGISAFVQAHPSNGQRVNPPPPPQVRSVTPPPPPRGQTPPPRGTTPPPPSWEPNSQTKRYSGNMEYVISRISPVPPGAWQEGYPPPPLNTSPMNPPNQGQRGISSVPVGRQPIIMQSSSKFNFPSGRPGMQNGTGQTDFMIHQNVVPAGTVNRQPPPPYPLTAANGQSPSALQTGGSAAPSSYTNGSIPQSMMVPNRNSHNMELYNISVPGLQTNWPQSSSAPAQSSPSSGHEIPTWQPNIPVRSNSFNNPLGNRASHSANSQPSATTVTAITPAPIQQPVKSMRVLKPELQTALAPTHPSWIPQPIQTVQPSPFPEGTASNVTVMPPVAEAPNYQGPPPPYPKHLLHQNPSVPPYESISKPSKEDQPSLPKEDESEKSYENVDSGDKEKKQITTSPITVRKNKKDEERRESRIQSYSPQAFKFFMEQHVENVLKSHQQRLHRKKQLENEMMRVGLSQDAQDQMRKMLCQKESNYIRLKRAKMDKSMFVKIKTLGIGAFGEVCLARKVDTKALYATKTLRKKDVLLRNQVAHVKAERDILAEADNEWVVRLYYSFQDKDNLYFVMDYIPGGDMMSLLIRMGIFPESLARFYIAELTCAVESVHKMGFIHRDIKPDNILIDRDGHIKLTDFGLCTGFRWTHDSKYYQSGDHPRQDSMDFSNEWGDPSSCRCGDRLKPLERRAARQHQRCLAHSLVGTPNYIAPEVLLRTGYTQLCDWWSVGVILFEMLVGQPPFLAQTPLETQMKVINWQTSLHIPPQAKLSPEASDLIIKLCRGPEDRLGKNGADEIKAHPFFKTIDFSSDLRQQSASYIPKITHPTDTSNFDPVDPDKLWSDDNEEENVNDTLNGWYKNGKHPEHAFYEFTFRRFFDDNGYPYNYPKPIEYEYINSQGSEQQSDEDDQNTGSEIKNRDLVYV
Description: NanoBRET target engagement assay in transfected HEK-293 cells, LATS1. Conditions: Table 28, NanoBRET, HEK-293 cells; read-out: LATS1 (Cellular) IC50. The experiment is classed as cell-based. The source says:
The NanoBRET™ assay measures kinase engagement in real time in the context of the intact cell. The assay uses a Kinase-NanoLuc® fusion vector expressing a kinase protein to which a luciferase tag has been added, a cell-permeant fluorescent NanoBRET™ tracer, a NanoLuc® substrate, and an extracellular NanoLuc® inhibitor. Upon expression of the luciferase-tagged kinase, cells will produce a strong BRET signal only in the presence of the NanoBRET™ tracer. The extracellular NanoLuc® inhibitor ensures that the BRET signal observed emanates only from live cells. Because the BRET signal has tight distance constraints, addition of the test compound will decrease the BRET signal if the compound competes with the NanoBRET™ tracer for binding to the kinase domain. Under the appropriate tracer conditions established by the manufacturer, quantitative intracellular affinity and relative potency can then be determined using Mass Action model equations.
HEK-293 cells were purchased from ATCC. FuGENEHD Transfection Reagent, Kinase-NanoLuc® fusion plasmids, Transfection Carrier DNA, NanoBRET™ Tracers and dilution buffer, NanoBRET™ Nano-Glo Substrate, Extracellular NanoLuc® Inhibitor were obtained from Promega.
Assays were conducted following Promega assay protocol with some modifications as described further below. HEK-293 Cells were transiently transfected with Kinase-NanoLuc® Fusion Vector DNA by FuGENE HD Transfection Reagent. Test compounds were delivered into 384 well assay plate by Echo 550 (Labcyte Inc, Sunnyvale, CA). Transfected cells were harvested and mixed with NanoBRET™ Tracer Reagent and dispensed into 384 well plates and incubated at 37° C. in 5% CO2 cell culture incubator for 1 hour. The NanoBRET™ Nano-Glo Substrate plus Extracellular NanoLuc® Inhibitor Solution were added into the wells of the assay plate and incubated for 2-3 minutes at room temperature. The donor emission wavelength (460 nm) and acceptor emission wavelength (600 nm) were measured in the EnVision plate reader. The BRET Ratios were calculated. BRET Ratio=[(Acceptor sample÷Donor sample)−(Acceptor no-tracer control÷Donor no-tracer control)]. The IC50 values of compounds were calculated with Prism GraphPad program.
• 1. Transient Transfection of HEK-293 Cells NanoLuc® Fusion Vector DNA • 1). Cultivate HEK-293 cells (70-80% confluence) appropriately prior to assay. Trypsinize and collect HEK-293 cells. • 2). Prepare lipid: DNA complexes as follows: • a. Prepare a […] solution of DNA in Opti-MEM™ without serum that consists of the following ratios of carrier DNA and DNA encoding NanoLuc® fusion. 9.0 µg/mL of Transfection Carrier DNA, […] of NanoLuc® fusion vector DNA and 1 mL of Opti-MEM™ without phenol red. Mix thoroughly. • b. Add 30 μl of FuGENE HD Transfection Reagent into each milliliter of DNA mixture to form lipid: DNA complex. • c. Mix by inversion 10 times. • d. Incubate at ambient temperature for 20 minutes to allow complexes to form. • 3). In a sterile, conical tube, mix 1 part of lipid: DNA complex with 20 parts of HEK-293 cells in suspension. Mix gently by inversion 5 times. • 4). Dispense cells+lipid: DNA complex into a sterile tissue culture dish and incubate for 22-24 hours. • 2. Addition of Test Compounds (dry plate shooting): Each test compound is delivered from the compound source plate to the wells of 384-well white NBS plate by Echo 550. • 3. Preparation of Cells with NanoBRET™ Tracer Reagent • 1). Remove medium from dish with transfected HEK-293 cells via aspiration, trypsinize and allow cells to dissociate from the dish. • 2). Neutralize trypsin using medium containing serum and centrifuge at 200× g for 5 minutes to pellet the cells. Adjust the cell density to 2×10^5 cells/mL in Opti-MEM™ without phenol red. • 3). Prepare Complete 20× NanoBRET™ Tracer Reagent with Tracer Dilution Buffer. • 4). Dispense one part of Complete 20× NanoBRET™ Tracer Reagent to 20 parts of cells in the tube. Mix gently by inversion 10 times. • 5). […]
A general note: In BRET a luciferase serves as donor, and the signal depends on an acceptor being close.
For orientation: IC50 means the midpoint of a concentration-inhibition curve. With `C[C@@H]1CNC[C@H](C)[C@@]1(O)c1ccc(-c2ccnc3[nH]cc(F)c23)cc1Cl` [Compound 1, (3S,4S,5R)-4-(2-chloro-4-(3-fluoro-1H-pyrrolo[2,3-b]pyridin-4-yl)phenyl)-3,5-dimethylpiperidin-4-ol], the 50% inhibitory concentration (IC50) is 203 nM.
For `C[C@@H]1CNC[C@H](C)[C@@]1(O)c1ccc(-c2ccnc3[nH]cc(F)c23)cc1` [Compound 2, (3R,4s,5S)-4-(4-(3-fluoro-1H-pyrrolo[2,3-b]pyridin-4-yl)phenyl)-3,5-dimethylpiperidin-4-ol], the half-inhibitory concentration (IC50) turned out to be 550 nM.
`C[C@@H]1CNC[C@H](C)[C@@]1(O)c1ccc(-c2ccnc3[nH]cc(F)c23)cc1F` [Compound 7, (3S,4s,5R)-4-(2-fluoro-4-(3-fluoro-1H-pyrrolo[2,3-b]pyridin-4-yl)phenyl)-3,5-dimethyl piperidin-4-ol]: the half-maximal inhibitory concentration (IC50) was 247 nM.
The result for `C[C@@H]1CNC[C@H](C)[C@@]1(O)c1ccc(-c2ccnc3[nH]cc(F)c23)nc1` [Compound 8, (3S,4s,5R)-4-(6-(3-fluoro-1H-pyrrolo[2,3-b]pyridin-4-yl)pyridin-3-yl)-3,5-dimethylpiperidin-4-ol] reads 60 nM; that for `Cc1cc(-c2ccnc3[nH]cc(F)c23)ccc1[C@@]1(O)[C@H](C)CNC[C@@H]1C` [Compound 9, (3S,4s,5R)-4-(4-(3-fluoro-1H-pyrrolo[2,3-b]pyridin-4-yl)-2-methylphenyl)-3,5-dimethylpiperidin-4-ol], 44.6 nM.
In the case of `C[C@@H]1CNC[C@H](C)[C@@]1(O)c1c(F)cc(-c2ccnc3[nH]cc(F)c23)cc1F` [Compound 13], the IC50 came to 1450 nM.
As to `C[C@@H]1CNC[C@H](C)[C@@]1(O)c1ccc(-c2ccnc3[nH]cc(F)c23)cc1OC(F)(F)F` [Compound 14, (3S,4s,5R)-4-(4-(3-fluoro-1H-pyrrolo[2,3-b]pyridin-4-yl)-2-(trifluoromethoxy)phenyl)-3,5-dimethylpiperidin-4-ol], the IC50 came to 2130 nM.
For the molecule `C[C@@H]1CN(Cc2ccccn2)C[C@H](C)[C@@]1(O)c1c(F)cc(-c2ccnc3[nH]cc(F)c23)cc1F` [Compound 17, (3S,4s,5R)-4-(2,6-difluoro-4-(3-fluoro-1H-pyrrolo[2,3-b]pyridin-4-yl)phenyl)-3,5-dimethyl-1-(pyridin-2-ylmethyl)piperidin-4-ol], the IC50 turned out to be 409 nM.
The result for `C[C@@H]1CN(C)C[C@H](C)[C@@]1(O)c1cnc(-c2ccnc3[nH]cc(F)c23)cc1Cl` [Compound 22, (3S,4s,5R)-4-(4-chloro-6-(3-fluoro-1H-pyrrolo[2,3-b]pyridin-4-yl)pyridin-3-yl)-1,3,5-trimethylpiperidin-4-ol] reads 505 nM.
As for `Cc1cc(-c2ccnc3[nH]cc(F)c23)ccc1[C@@]1(O)[C@H](C)CN(C2COC2)C[C@@H]1C` [Compound 24, (3S,4s,5R)-4-(4-(3-fluoro-1H-pyrrolo[2,3-b]pyridin-4-yl)-2-methylphenyl)-3,5-dimethyl-1-(oxetan-3-yl)piperidin-4-ol], the figure is 127 nM; as for `Cc1cc(-c2ccnc3[nH]cc(F)c23)ccc1[C@@]1(O)[C@H](C)CN(C(C)C)C[C@@H]1C` [Compound 29, (3S,4s, 5R)-4-(4-(3-fluoro-1H-pyrrolo[2,3-b]pyridin-4-yl)-2-methylphenyl)-1-isopropyl-3,5-dimethylpiperidin-4-ol], 86 nM; as for `Cc1cc(-c2ccnc3[nH]cc(F)c23)cc(F)c1C1(O)[C@H](C)CN(C2COC2)C[C@@H]1C` (stereo partly drawn) [Compound 30, (3S,5R)-4-(2-fluoro-4-(3-fluoro-1H-pyrrolo[2,3-b]pyridin-4-yl)-6-methylphenyl)-3,5-dimethyl-1-(oxetan-3-yl)piperidin-4-ol], 58.2 nM.
Consider `C[C@@H]1CN(C2CCS(=O)(=O)CC2)C[C@H](C)C1(O)c1c(F)cc(-c2ccnc3[nH]cc(F)c23)cc1F` (stereo partly drawn) [Compound 31, 4-((3S,5R)-4-(2,6-difluoro-4-(3-fluoro-1H-pyrrolo[2,3-b]pyridin-4-yl)phenyl)-4-hydroxy-3,5-dimethylpiperidin-1-yl)tetrahydro-2H-thiopyran 1,1-dioxide], for which the half-maximal inhibitory concentration (IC50) was found to be 1190 nM.
The result for `C[C@@H]1CN(C)C[C@H](C)[C@@]1(O)c1ccc(-c2ccnc3[nH]cc(F)c23)cc1` [Compound 39, (3R,4s,5S)-4-(4-(3-fluoro-1H-pyrrolo[2,3-b]pyridin-4-yl)phenyl)-1,3,5-trimethylpiperidin-4-ol] reads 19000 nM.
On to `C[C@@H]1CN(C)C[C@H](C)[C@@]1(O)c1ccc(-c2ccnc3[nH]cc(F)c23)nc1` [Compound 41, (3R,4s,5S)-4-(6-(3-fluoro-1H-pyrrolo[2,3-b]pyridin-4-yl)pyridin-3-yl)-1,3,5-trimethylpiperidin-4-ol], for which the IC50 is 115 nM.
On to `C[C@@H]1CN(C2COC2)C[C@H](C)[C@@]1(O)c1c(F)cc(-c2ccnc3[nH]cc(F)c23)cc1F` [Compound 45, (3S,4s,5R)-4-(2,6-difluoro-4-(3-fluoro-1H-pyrrolo[2,3-b]pyridin-4-yl)phenyl)-3, S-dimethyl-1-(oxetan-3-yl)piperidin-4-ol], for which the IC50 worked out at 813 nM.
Consider `C[C@@H]1CN(C2CCC2)C[C@H](C)[C@@]1(O)c1c(F)cc(-c2ccnc3[nH]cc(F)c23)cc1F` [Compound 46, (3R,4s,5S)-1-cyclobutyl-4-(2,6-difluoro-4-(3-fluoro-1H-pyrrolo[2,3-b]pyridin-4-yl)phenyl)-3,5-dimethylpiperidin-4-ol], for which the half-inhibitory concentration (IC50) came to 462 nM.
As for `Cc1cc(-c2ccnc3[nH]cc(F)c23)ncc1[C@@]1(O)[C@H](C)CN(C2CCC2)C[C@@H]1C` [Compound 48, (3R,4s,5S)-1-cyclobutyl-4-(6-(3-fluoro-1H-pyrrolo[2,3-b]pyridin-4-yl)-4-methylpyridin-3-yl)-3,5-dimethylpiperidin-4-ol], the figure is 12600 nM.
